Measurements from article PMC4982760, “Small-molecule inhibitors identify the RAD52-ssDNA interaction as critical for recovery from replication stress and for survival of BRCA2 deficient cells” (eLife, 2016).

Assays:
RAD52-ssDNA interaction = molecular target: T1, RAD52-ssDNA interaction (Homo sapiens, UniProt P43351); test: FRET-based ssDNA binding and wrapping assay (RAD52-Cy3-dT30-Cy5 complex); conditions: 1 nM Cy3-dT30-Cy5, 8 nM RAD52, 25°C; read-out: IC50 (DNA binding), ssDNA
T1 construct: made in house
T1 sequence (P43351 1-418): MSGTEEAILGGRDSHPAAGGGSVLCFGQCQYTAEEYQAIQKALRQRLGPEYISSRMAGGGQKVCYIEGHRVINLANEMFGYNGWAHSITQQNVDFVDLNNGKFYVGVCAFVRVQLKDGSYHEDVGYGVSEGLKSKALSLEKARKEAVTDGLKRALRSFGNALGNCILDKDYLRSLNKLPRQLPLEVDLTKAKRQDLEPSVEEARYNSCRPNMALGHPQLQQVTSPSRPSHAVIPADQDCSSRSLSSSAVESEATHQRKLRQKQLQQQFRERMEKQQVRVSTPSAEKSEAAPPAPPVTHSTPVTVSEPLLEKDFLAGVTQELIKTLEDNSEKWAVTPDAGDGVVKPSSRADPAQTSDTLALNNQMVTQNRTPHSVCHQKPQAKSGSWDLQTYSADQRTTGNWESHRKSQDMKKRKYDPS
Experimental: We titrated increasing amounts of each compound into a cuvette containing preformed stoichiometric RAD52-Cy3-dT30-Cy5 complexes (1 nM Cy3-dT30-Cy5 and 8 nM RAD52). […] At each concentration of the compound, the FRET signal was adjusted for the change in Cy3 and Cy5 fluorescence in the presence of the compound, but in the absence of protein.
FRET-based ssDNA binding, dsDNA binding, and annealing assays were carried out as previously described ([Grimme et al., 2010]; [Grimme and Spies, 2011]) using Cary Eclipse spectrofluorimeter (Varian) at 25°C in buffer containing 30 mM Tris-Acetate pH7.5, 1 mM DTT, and 0.1 mg/mL BSA. Cy3 dye was excited at 530 nm and its emission was monitored at 565 nm. Emission of Cy5 acceptor fluorophore excited through the energy transfer from Cy3 donor is monitored at 660 nm simultaneously with emission of Cy3 dye. Both the excitation and the emission slit widths were set to 10 nm.
All experiments were performed in triplicates, and the data are shown as averages and standard deviations for three independent measurements. To remove possible experimental artifacts associated with chromogenic or fluorogenic compounds, as well as with the compounds that may quench or enhance Cy3 or Cy5 fluorescence, we also performed control titrations whereby we titrated each compound into 1 nM Cy3-dT30-Cy5 in the absence of RAD52. For each compound concentration we subtracted the difference in the FRET signal in the presence and absence of the compound from the respective FRET signal in the presence of RAD52. The FRET signal corrected for the compound fluorescence was calculated using the equation: FRETapp=4.2∗ICy5/4.2∗ICy5+ 1.7∗ICy3
as previously described ([Grimme et al., 2010]; [Grimme and Spies, 2011]) and plotted as a function of compound concentration and fitted to the following inhibition model” FRET([small molecule])=FRET0−FRETmin/1+10^(LogIC50−Log([small molecule])∗HillSlope),
where FRET0 is the initial FRET value of the RAD52-ssDNA complex in the absence of the compound and FRETmin is the FRET value at complete inhibition. FRET values were calculated as an average of three or more independent annealing reactions plotted against the concentration of the compound. Inhibition of the RAD52-dsDNA interaction was assayed in a similar experiments, except the stoichiometric complexes containing 1 nM molecules of Cy3-Oligo28-Cy5 duplex DNA and 10 nM RAD52.

[1] = molecular target: T2, RAD52-RPA-Cy3-dT30-Cy5 complex (Homo sapiens, UniProt P43351); test: FRET-based RAD52 binding/wrapping of RPA-coated ssDNA
T2 construct: made in house
T2 sequence (P27694 whole entry partner, one chain of several): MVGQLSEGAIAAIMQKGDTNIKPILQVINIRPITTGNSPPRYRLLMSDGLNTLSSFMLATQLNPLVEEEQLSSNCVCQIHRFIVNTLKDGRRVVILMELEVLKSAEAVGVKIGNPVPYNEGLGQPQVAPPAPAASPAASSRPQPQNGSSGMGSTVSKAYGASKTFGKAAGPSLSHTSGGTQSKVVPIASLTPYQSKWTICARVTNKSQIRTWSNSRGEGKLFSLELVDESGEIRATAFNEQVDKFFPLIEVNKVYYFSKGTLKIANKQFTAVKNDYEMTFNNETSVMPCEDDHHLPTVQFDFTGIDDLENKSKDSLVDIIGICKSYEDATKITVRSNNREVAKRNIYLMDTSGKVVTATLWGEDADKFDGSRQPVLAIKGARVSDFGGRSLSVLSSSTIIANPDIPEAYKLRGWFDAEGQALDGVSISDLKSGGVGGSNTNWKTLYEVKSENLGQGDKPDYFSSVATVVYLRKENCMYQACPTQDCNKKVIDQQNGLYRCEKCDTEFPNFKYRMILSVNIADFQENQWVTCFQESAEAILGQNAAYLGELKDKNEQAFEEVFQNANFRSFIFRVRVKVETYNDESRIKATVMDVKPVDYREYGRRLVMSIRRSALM
T2 sequence (P15927 whole entry partner, one chain of several): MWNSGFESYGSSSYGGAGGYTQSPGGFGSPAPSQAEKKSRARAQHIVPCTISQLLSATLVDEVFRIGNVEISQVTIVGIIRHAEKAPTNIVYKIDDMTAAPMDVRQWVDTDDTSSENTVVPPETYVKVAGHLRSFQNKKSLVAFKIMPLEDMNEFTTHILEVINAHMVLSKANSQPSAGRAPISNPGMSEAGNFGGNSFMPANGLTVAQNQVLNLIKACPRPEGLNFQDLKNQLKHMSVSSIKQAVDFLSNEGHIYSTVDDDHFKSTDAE
T2 sequence (P35244 whole entry partner, one chain of several): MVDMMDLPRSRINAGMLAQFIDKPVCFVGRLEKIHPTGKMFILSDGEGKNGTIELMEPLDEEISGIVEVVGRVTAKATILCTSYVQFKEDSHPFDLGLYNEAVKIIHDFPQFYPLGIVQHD
From the text: The RPA-ssDNA complex is a physiologically relevant substrate for the RAD52-mediated strand annealing. […] RPA binds ssDNA with high affinity and extends the ssDNA to its contour length.
(§1) In all experiments, the FRET values for each data point were corrected for the effects of the compounds on the respective substrate in the absence of RAD52.

RAD52-dsDNA interaction = molecular target: T3, RAD52-dsDNA interaction (Homo sapiens, UniProt P43351); test: FRET-based RAD52-dsDNA binding assay; conditions: 1 nM dsDNA, 10 nM RAD52
T3 construct: made in house
T3 sequence (P43351 1-418): T1 sequence (P43351 1-418)

RAD52 = molecular target: T4, RAD52 (Homo sapiens, UniProt P43351); test: WaterLOGSY NMR binding to RAD52; conditions: 20-40 μM compound, 3.3 μM RAD52
T4 construct: made in house
T4 sequence (P43351 1-418): T1 sequence (P43351 1-418)
From the text: (§2) To confirm that the selected compounds bind RAD52, we employed water-ligand observation with gradient spectroscopy (WaterLOGSY), an NMR technique, which is based on transfer of magnetization from bulk water to the protein-bound compound of interest ([Dalvit et al., 2001], [2000]). In WaterLOGSY spectrum, if a compound binds to a protein, the compound will receive negative nuclear Overhauser effects (NOEs) due to the slow tumbling of the protein-compound complex, leading to a positive WaterLOGSY peak. […] Similarly, the binding of ‘6’to RAD52 is evident from the positive WaterLOGSY peaks that are clearly detected for this compound (Figure 3a).
(§3) Compound binding to RAD52 and RPA proteins was analyzed using water-ligand observation with gradient spectroscopy (WaterLOGSY) NMR experiments ([Dalvit et al., 2001], [2000]). The WaterLOGSY spectra of compounds in the presence of RAD52 or RPA were acquired using a water NOE mixing time of 1 s and a T2 relaxation filter of 50 ms just before data acquisition to suppress the broad signals derived from protein. The protein buffer used in the experiments contains 10 mM Tris-d11, 75 mM KCl, 0.25 mM EDTA, pH 7.5, and 10% D20. All NMR data were acquired on a Bruker Avance II 800 MHz NMR spectrometer equipped with a sensitive cryoprobe and recorded at 25°C. The ^1H chemical shifts were referenced to 2,2-dimethyl-2-silapentane-5-sulfonate (DSS). NMR spectra were processed using NMR Pipe ([Delaglio et al., 1995]) and analysed using NMR View ([Johnson and Blevins, 1994]).

RPA = molecular target: T5, RPA (Homo sapiens, UniProt P15927+P27694+P35244); test: WaterLOGSY NMR binding to RPA; conditions: 20-40 μM compound, 3.3 μM RPA
T5 construct: made in house
T5 sequence (P27694 whole entry): as the sequence (P27694 whole entry partner, one chain of several) above
T5 sequence (P15927 whole entry): as the sequence (P15927 whole entry partner, one chain of several) above
T5 sequence (P35244 whole entry): as the sequence (P35244 whole entry partner, one chain of several) above
From the text: as §2, §3

RPA-ssDNA interaction = molecular target: T6, RPA-ssDNA interaction (Homo sapiens, UniProt P15927+P27694+P35244); test: FRET titration of the RPA-Cy3-dT30-Cy5 complex; format: binding; conditions: range of tested concentrations
T6 construct: made in house
T6 sequence (P27694 whole entry): as the sequence (P27694 whole entry partner, one chain of several) above
T6 sequence (P15927 whole entry): as the sequence (P15927 whole entry partner, one chain of several) above
T6 sequence (P35244 whole entry): as the sequence (P35244 whole entry partner, one chain of several) above
From the text: In the cell, ssDNA is typically found in complex with Replication protein A (RPA), the major eukaryotic ssDNA-binding protein essential for DNA replication, repair and recombination ([Wold, 1997]; [Oakley and Patrick, 2010]; [Chen and Wold, 2014]). The RPA-ssDNA complex is a physiologically relevant substrate for the RAD52-mediated strand annealing. […] RPA binds ssDNA with high affinity and extends the ssDNA to its contour length. In our assays such an extension manifests as a distinct FRET state of ~0.3, which is readily distinguished from a FRET state of ~0.48 of free Cy3-dT30-Cy5 ssDNA, as well as ~0.63 FRET of the stoichiometric ssDNA-RPA-RAD52 complex (see Figure 2—figure supplement 1 and ([Grimme and Spies, 2011]) for details). […] Both, however, inhibited the RAD52 binding to and wrapping of RPA-coated ssDNA with IC50 values identical to those determined without RPA (Figure 2e and Figure 3e).
as §1

Q: With O=C(O[C@@H]1O[C@@H]2COC(=O)c3cc(O)c(O)c(O)c3-c3c(cc(O)c(O)c3O)C(=O)O[C@H]([C@H]1O)[C@@H]2O)c1cc(O)c(O)c(O)c1 [NP-004255, corilagin] as the compound, how does the IC50 (RAD52-ssDNA interaction) read?
A: Its IC50 is 1500 ± 200 nM.

Q: What about the IC50 [1] of the same compound?
A: The IC50 was 500 ± 100 nM.

Q: What about the “effect on the RAD52-dsDNA interaction” value (RAD52-dsDNA interaction) of the same compound?
A: The value was “had no effect on the RAD52-dsDNA interaction”.

Q: And the “binding to RAD52 (WaterLOGSY)” value (RAD52)?
A: The value was “physically interacts with RAD52”.

Q: What about the “binding to RPA (WaterLOGSY)” value (RPA) of the same compound?
A: Its value is “also bound RPA”.

Q: And the “effect on the RPA-ssDNA interaction” value (RPA-ssDNA interaction)?
A: The value was “did not affect the RPA-ssDNA complex”.
